From patent publication US20230312587A1, “PTERIDINONE COMPOUNDS AND USES THEREOF” (Vertex Pharmaceutical Incorporated, priority 2018, published 2023) come the findings set out here.

In general, IC50 refers to the concentration at which inhibition is half-maximal.

In this assay the test system is β-catenin-TCF-mediated reporter transcription activity in Colo 205 cells. Put plainly: Colo 205 reporter assay (TCF/LEF luciferase). In kind it is cell-based. As to conditions: Homo sapiens, COLO 205, 5 h, Colo 205 TCF/LEF luciferase reporter, five hours after addition of compound; read-out: TCF reporter Colo205 IC50. Put shortly:
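Luciferase signal from a TCF/LEF-driven reporter, stably integrated in Colo 205 colon cancer cells, was measured 5 h after compound addition.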
On the technique in general: A reporter such as luciferase makes a cellular process visible.

Regarding `Cc1nc(NCc2cnn(Cc3ccc(F)cc3Cl)c2)nc2c1NC(=O)[C@H](C)N2C` [Compound 65, (7S)-2-(((1-(2-chloro-4-fluorobenzyl)-1H-pyrazol-4-yl)methyl)amino)-4,7,8-trimethyl-7,8-dihydropteridin-6(5H)-one], the IC50 was < 300 nM.

Regarding `Cc1cc(F)ccc1Cn1cc(CNc2nc(C)c3c(n2)N(C)[C@@H](C)C(=O)N3)cn1` [Compound 66, (7S)-2-(((1-(4-fluoro-2-methylbenzyl)-1H-pyrazol-4-yl)methyl)amino)-4,7,8-trimethyl-7,8-dihydropteridin-6(5H)-one], the IC50 is < 300 nM. `Cc1nc(NCc2cnn(Cc3ccc(F)cc3C(F)(F)F)c2)nc2c1NC(=O)[C@H](C)N2C` [Compound 67, (7S)-2-(((1-(4-fluoro-2-(trifluoromethyl)benzyl)-1H-pyrazol-4-yl)methyl)amino)-4,7,8-trimethyl-7,8-dihydropteridin-6(5H)-one]: the half-inhibitory concentration (IC50) was < 300 nM. The figure for `Cc1nc(NCc2cnn(Cc3ccccc3C(F)(F)F)c2)nc2c1NC(=O)[C@H](C)N2C` [Compound 68, (7S)-4,7,8-trimethyl-2-(((1-(2-(trifluoromethyl)benzyl)-1H-pyrazol-4-yl)methyl)amino)-7,8-dihydropteridin-6(5H)-one] is < 300 nM; for `Cc1nc(NCc2cnn(Cc3cccc(F)c3)c2)nc2c1NC(=O)[C@H](C)N2C` [Compound 69, (7S)-2-(((1-(3-fluorobenzyl)-1H-pyrazol-4-yl)methyl)amino)-4,7,8-trimethyl-7,8-dihydropteridin-6(5H)-one] it is < 300 nM.

In the case of `Cc1nc(NCc2ccc(OCc3ccc(F)cc3)cn2)nc2c1NC(=O)[C@H](C)N2C` [Compound 70, (S)-2-(((5-((4-fluorobenzyl)oxy)pyridin-2-yl)methyl)amino)-4,7,8-trimethyl-7,8-dihydropteridin-6(5H)-one], the IC50 lay in the range of 300 to 1000 nM. With `Cc1nc(NCc2cnn([C@@H](C)c3ccc(F)cc3)c2)nc2c1NC(=O)[C@H](C)N2C` [Compound 71, (7S)-2-(((1-((S)-1-(4-fluorophenyl)ethyl)-1H-pyrazol-4-yl)methyl)amino)-4,7,8-trimethyl-7,8-dihydropteridin-6(5H)-one], the IC50 lay within 300 to 1000 nM. On to `Cc1nc(NCc2cnn([C@H](C)c3ccc(F)cc3)c2)nc2c1NC(=O)[C@H](C)N2C` [Compound 72, (7S)-2-(((1-((R)-1-(4-fluorophenyl)ethyl)-1H-pyrazol-4-yl)methyl)amino)-4,7,8-trimethyl-7,8-dihydropteridin-6(5H)-one], for which the IC50 was < 300 nM.

As to `Cc1nn(Cc2ccc(F)cc2)cc1CNc1nc(C)c2c(n1)N(C)[C@@H](C)C(=O)N2` [Compound 73, (7S)-2-(((1-(4-fluorobenzyl)-3-methyl-1H-pyrazol-4-yl)methyl)amino)-4,7,8-trimethyl-7,8-dihydropteridin-6(5H)-one], the IC50 is < 300 nM. With `Cc1nc(NCc2cnn(Cc3ccc(F)cc3)c2C)nc2c1NC(=O)[C@H](C)N2C` [Compound 74, (7S)-2-(((1-(4-fluorobenzyl)-5-methyl-1H-pyrazol-4-yl)methyl)amino)-4,7,8-trimethyl-7,8-dihydropteridin-6(5H)-one] the figure was 300 to 1000 nM. With `COc1cc(Cn2cc(CNc3nc(C)c4c(n3)N(C)[C@@H](C)C(=O)N4)cn2)ccc1F` [Compound 75, (7S)-2-(((1-(4-fluoro-3-methoxybenzyl)-1H-pyrazol-4-yl)methyl)amino)-4,7,8-trimethyl-7,8-dihydropteridin-6(5H)-one] the figure was < 300 nM; with `COc1ccc(Cn2ccc(CNc3nc(C)c4c(n3)N(C)[C@@H](C)C(=O)N4)n2)cc1OC` [Compound 76, (7S)-2-(((1-(3,4-dimethoxybenzyl)-1H-pyrazol-3-yl)methyl)amino)-4,7,8-trimethyl-7,8-dihydropteridin-6(5H)-one], ≥ 5000 nM; with `Cc1nc(NCc2cnn(Cc3ccccc3C(C)C)c2)nc2c1NC(=O)[C@H](C)N2C` [Compound 78, (7S)-2-(((1-(2-isopropylbenzyl)-1H-pyrazol-4-yl)methyl)amino)-4,7,8-trimethyl-7,8-dihydropteridin-6(5H)-one], < 300 nM. Turning to `CC(C)c1ccccc1Cn1cc(CNc2ncc3c(n2)N(C)[C@@H](C)C(=O)N3)cn1` [Compound 79, (7S)-2-(((1-(2-isopropylbenzyl)-1H-pyrazol-4-yl)methyl)amino)-7,8-dimethyl-7,8-dihydropteridin-6(5H)-one], the IC50 is < 300 nM.

Turning to `CC(C)c1cccc(Cn2cc(CNc3ncc4c(n3)N(C)[C@@H](C)C(=O)N4)cn2)c1` [Compound 81, (7S)-2-(((1-(3-isopropylbenzyl)-1H-pyrazol-4-yl)methyl)amino)-7,8-dimethyl-7,8-dihydropteridin-6(5H)-one], the IC50 was < 300 nM. With `Cc1nc(NCc2cnn(Cc3ccc(F)nc3)c2)nc2c1N(C)C(=O)[C@H](C)N2C` [Compound 82, (7S)-2-(((1-((6-fluoropyridin-3-yl)methyl)-1H-pyrazol-4-yl)methyl)amino)-4,5,7,8-tetramethyl-7,8-dihydropteridin-6(5H)-one], the IC50 fell in the range of 300 to 1000 nM. As to `COc1cc(F)ccc1Cn1cc(CNc2nc(C)c3c(n2)N(C)[C@@H](C)C(=O)N3C)cn1` [Compound 84, (7S)-2-(((1-(4-fluoro-2-methoxybenzyl)-1H-pyrazol-4-yl)methyl)amino)-4,5,7,8-tetramethyl-7,8-dihydropteridin-6(5H)-one], the IC50 was < 300 nM.

Turning to `Cc1nc(NCc2cnn(Cc3ccc(F)cc3O)c2)nc2c1NC(=O)[C@H](C)N2C` [Compound 87, (7S)-2-(((1-(4-fluoro-2-hydroxybenzyl)-1H-pyrazol-4-yl)methyl)amino)-4,7,8-trimethyl-7,8-dihydropteridin-6(5H)-one], the IC50 is < 300 nM. The figure for `COc1c(F)ccc(Cn2cc(CNc3nc(C)c4c(n3)N(C)[C@@H](C)C(=O)N4)cn2)c1F` [Compound 88, (7S)-2-(((1-(2,4-difluoro-3-methoxybenzyl)-1H-pyrazol-4-yl)methyl)amino)-4,7,8-trimethyl-7,8-dihydropteridin-6(5H)-one] is < 300 nM. With `Cc1nc(NCc2cnn(C[C@@H](C)c3ccccc3)c2)nc2c1NC(=O)[C@H](C)N2C` [Compound 89, (7S)-4,7,8-trimethyl-2-(((1-((S)-2-phenylpropyl)-1H-pyrazol-4-yl)methyl)amino)-7,8-dihydropteridin-6(5H)-one] the figure was < 300 nM; with `Cc1nc(NCc2cnn(C[C@H](C)c3ccccc3)c2)nc2c1NC(=O)[C@H](C)N2C` [Compound 90, (7S)-4,7,8-trimethyl-2-(((1-((R)-2-phenylpropyl)-1H-pyrazol-4-yl)methyl)amino)-7,8-dihydropteridin-6(5H)-one], < 300 nM; with `Cc1nc(NCc2cnn(CC(=O)c3ccc(F)cc3)c2)nc2c1NC(=O)[C@H](C)N2C` [Compound 91, (7S)-2-(((1-(2-(4-fluorophenyl)-2-oxoethyl)-1H-pyrazol-4-yl)methyl)amino)-4,7,8-trimethyl-7,8-dihydropteridin-6(5H)-one], < 300 nM. The figure for `Cc1nc(NCc2cnn(CC(C)(C)c3ccc(F)cc3)c2)nc2c1NC(=O)[C@H](C)N2C` [Compound 92, (7S)-2-(((1-(2-(4-fluorophenyl)-2-methylpropyl)-1H-pyrazol-4-yl)methyl)amino)-4,7,8-trimethyl-7,8-dihydropteridin-6(5H)-one] is < 300 nM; for `Cc1nc(NCc2cnn(C[C@@H](C)c3ccc(F)cc3)c2)nc2c1NC(=O)[C@H](C)N2C` [Compound 95, (7S)-2-(((1-((S)-2-(4-fluorophenyl)propyl)-1H-pyrazol-4-yl)methyl)amino)-4,7,8-trimethyl-7,8-dihydropteridin-6(5H)-one] it is < 300 nM; for `Cc1nc(NCc2cnn(-c3cccc(C(F)(F)F)c3)c2)nc2c1NC(=O)[C@H](C)N2C` [Compound 97, (7S)-4,7,8-trimethyl-2-(((1-(3-(trifluoromethyl)phenyl)-1H-pyrazol-4-yl)methyl)amino)-7,8-dihydropteridin-6(5H)-one] it is < 300 nM. Regarding `Cc1nc(NCc2cnn(-c3ccc(F)cc3F)c2)nc2c1NC(=O)[C@H](C)N2C` [Compound 98, (7S)-2-(((1-(2,4-difluorophenyl)-1H-pyrazol-4-yl)methyl)amino)-4,7,8-trimethyl-7,8-dihydropteridin-6(5H)-one], the IC50 was 1000 to 5000 nM. The figure for `Cc1nc(NCc2cnn(C3CCNCC3)c2)nc2c1NC(=O)[C@H](C)N2C` [Compound 99, (7S)-4,7,8-Trimethyl-2-(((1-(piperidin-4-yl)-1H-pyrazol-4-yl)methyl)amino)-7,8-dihydropteridin-6(5H)-one] is ≥ 5000 nM; for `Cc1nc(NCc2cnn([C@H](C)Cc3ccccc3)c2)nc2c1NC(=O)[C@H](C)N2C` [Compound 101, (7S)-4,7,8-trimethyl-2-(((1-((R)—1-phenylpropan-2-yl)-1H-pyrazol-4-yl)methyl)amino)-7,8-dihydropteridin-6(5H)-one] it is < 300 nM.

Consider `Cc1nc(NCc2cnn([C@@H](C)Cc3ccccc3)c2)nc2c1NC(=O)[C@H](C)N2C` [Compound 102, (7S)-4,7,8-trimethyl-2-(((1-((S)-1-phenylpropan-2-yl)-1H-pyrazol-4-yl)methyl)amino)-7,8-dihydropteridin-6(5H)-one], for which the IC50 was in the range of 1000 to 5000 nM.

On to `Cc1nc(NCc2cnn(CCCc3ccc(F)cc3)c2)nc2c1NC(=O)[C@H](C)N2C` [Compound 104, (7S)-2-(((1-(3-(4-fluorophenyl)propyl)-1H-pyrazol-4-yl)methyl)amino)-4,7,8-trimethyl-7,8-dihydropteridin-6(5H)-one], for which the IC50 was < 300 nM.

For `Cc1nc(NCc2cnn(CCc3ccc(F)c(F)c3)c2)nc2c1NC(=O)[C@H](C)N2C` [Compound 105, (7S)-2-(((1-(3,4-difluorophenethyl)-1H-pyrazol-4-yl)methyl)amino)-4,7,8-trimethyl-7,8-dihydropteridin-6(5H)-one], the IC50 was < 300 nM.
